# US10227360B2, “Compounds for use as GPR120 agonists” (PIRAMAL ENTERPRISES LIMITED, priority 2014, dated 2019)
# Biological target: GPR120L receptor (Homo sapiens (Human), UniProt Q5NUL3)
# Test: Beta (β) arrestin 2 Interaction Assay (BRET assay), β-galactosidase enzyme fragment complementation
# Assay type: cell-based
# Conditions: CHO-K1 cells stably expressing the GPR120L receptor; β-arrestin recruitment; 2 hours incubation
# Method: Beta (β) arrestin 2 Interaction Assay (BRET assay) was performed using CHO-K1 cells stably expressing the GPR120L receptor using β-galactosidase (Beta gal) enzyme fragment complementation assay. The measurement of GPR120 activation upon agonist activation was directly provided by β-arrestin recruitment. One day before the β-arrestin 2 assay, CHO-K1 cells were seeded and incubated overnight at 37° C. in a 5% CO2 humidified atmosphere. Cells were treated with the test compounds in the various concentrations ranging from 30 μM to 1 nM and incubated for 2 hours for GPCR (GPR120) activation. Extent of Arrestin recruitment was measured by adding detection reagents for Beta gal complementation assay and was further incubated for 1 hour. The chemi-luminescent signal was detected on Polar Star (BMG Labtech). The dose-response curve was analyzed using Sigma Plot/Graph Pad. The EC50 (concentration of the test compounds where 50% of compounds' maximal activity is observed) values were calculated from the dose-response curve.
# Chain of GPR120L receptor (Q5NUL3 other isoform, or with tags, fused parts or gaps): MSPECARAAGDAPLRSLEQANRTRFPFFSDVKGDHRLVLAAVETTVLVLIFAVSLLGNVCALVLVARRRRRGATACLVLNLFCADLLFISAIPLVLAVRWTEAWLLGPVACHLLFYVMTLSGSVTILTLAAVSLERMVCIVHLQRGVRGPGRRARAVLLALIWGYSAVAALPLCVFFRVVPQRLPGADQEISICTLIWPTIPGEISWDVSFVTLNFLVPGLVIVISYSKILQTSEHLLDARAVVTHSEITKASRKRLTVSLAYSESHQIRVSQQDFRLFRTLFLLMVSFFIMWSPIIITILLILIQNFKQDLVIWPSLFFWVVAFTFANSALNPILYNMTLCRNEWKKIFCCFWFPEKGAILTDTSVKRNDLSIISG
row,SMILES,EC50
1,"O=C(O)CCCc1ccc(OCc2cc(F)ccc2-c2nc3c(s2)CCCCC3)cc1 [Example 41, 4-(4-((5-Fluoro-2-(5,6,7,8-tetrahydro-4H-cyclohepta[d]thiazol-2-yl)benzyl)oxy)phenyl)butanoic acid]",0.01 to 0.5 µM
2,"O=C(O)CCCc1ccc(OCc2cc(F)ccc2-c2nnc(C3CC3)s2)cc1 [Example 44, 4-(4-((2-(5-Cyclopropyl-1,3,4-thiadiazol-2-yl)-5-fluorobenzyl)oxy)phenyl)butanoic acid]",0.01 to 0.5 µM
3,"O=C(O)CCCc1ccc(OCc2cc(F)ccc2-c2ncc(C3CC3)s2)cc1 [Example 45, 4-(4-((2-(5-Cyclopropylthiazol-2-yl)-5-fluorobenzyl)oxy)phenyl)butanoic acid]",0.01 to 0.5 µM
4,"O=C(O)CCCc1ccc(OCc2cc(F)ccc2-c2nc3c(s2)CCCC3)cc1 [Example 46, 4-(4-((5-Fluoro-2-(4,5,6,7-tetrahydrobenzo[d]thiazol-2-yl)benzyl)oxy)phenyl)butanoic acid]",0.01 to 0.5 µM
5,"O=C(O)CCCc1ccc(OCc2cc(F)ccc2-c2nc3c(s2)CCC3)cc1 [Example 47, 4-(4-((2-(5,6-dihydro-4H-cyclopenta[d]thiazol-2-yl)-5-fluorobenzyl)oxy)phenyl)butanoic acid]",0.01 to 0.5 µM
6,"O=C(O)CCCc1ccc(OCc2cc(F)ccc2-c2nc3c(s2)COCC3)cc1 [Example 48, 4-(4-((2-(6,7-Dihydro-4H-pyrano[4,3-d]thiazol-2-yl)-5-fluorobenzyl)oxy)phenyl)butanoic acid]",0.5 to 5 µM
7,"O=C(O)CCCc1ccc(OCc2cc(F)ccc2-c2nc3c(s2)COCC3)cc1 [Example 49, 4-(4-((2-(6,7-Dihydro-4H-pyrano[4,3-d]thiazol-2-yl)-5-fluorobenzyl)oxy)phenyl)butanoic acid]",0.01 to 0.5 µM
8,"O=C(O)CCCc1ccc(OCc2cc(F)ccc2-c2nc(C3CC3)cs2)cc1 [Example 50, 4-(4-((2-(4-Cyclopropylthiazol-2-yl)-5-fluorobenzyl)oxy)phenyl)butanoic acid]",0.5 to 5 µM

# Results, then the compound that gave them:
row,EC50,SMILES
1,0.01 to 0.5 µM,"CC1(c2ccc(-c3ccc(F)cc3COc3ccc(CCCC(=O)O)cc3)s2)CC1 [Example 40, 4-(4-((5-Fluoro-2-(5-(1-methylcyclopropyl)thiophen-2-yl)benzyl)oxy)phenyl)butanoic acid]"
2,5 to 50 µM,"O=C(O)CCCc1ccc(OCc2cc(F)ccc2-c2ccc(C3(F)CC3)s2)cc1 [Example 42, 4-(4-((5-Fluoro-2-(5-(1-fluorocyclopropyl)thiophen-2-yl)benzyl)oxy)phenyl)butanoic acid]"
3,0.01 to 0.5 µM,"O=C(O)CCCc1ccc(OCc2cc(F)ccc2-c2ccc(C3CC3(F)F)cc2)cc1 (centres unmarked) [Example 43, 4-(4-((4′-(2,2-Difluorocyclopropyl)-4-fluoro-[1,1′-biphenyl]-2-yl)methoxy)phenyl)butanoic acid]"
